This note sets out measurements from ChEMBL document CHEMBL3992518, “Peptide Macrocycle Inhibitor of Coagulation Factor XII with Subnanomolar Affinity and High Target Selectivity” (J Med Chem, 2017).

Each structure is given as a SMILES string. *1 amine or outer side, *2 acyl side, *3 side chain or, on linkers, in order; H or OH if unused. Where a SMILES comes first, the peptide text is derived from it. Bridges are numbered along the chain shown (N, C = ends). [ ]: non-standard residue; d: D form. TATA = O=C(CC[*:1])N1CN(C(=O)CC[*:2])CN(C(=O)CC[*:3])C1; hLys = NCCCCC[C@H](N)C(=O)O A value given as a limit tells only on which side of the number the result lay.

The target in the experiment is T1, Coagulation factor XII (Homo sapiens, UniProt P00748).
T1 sequence (P00748 whole entry): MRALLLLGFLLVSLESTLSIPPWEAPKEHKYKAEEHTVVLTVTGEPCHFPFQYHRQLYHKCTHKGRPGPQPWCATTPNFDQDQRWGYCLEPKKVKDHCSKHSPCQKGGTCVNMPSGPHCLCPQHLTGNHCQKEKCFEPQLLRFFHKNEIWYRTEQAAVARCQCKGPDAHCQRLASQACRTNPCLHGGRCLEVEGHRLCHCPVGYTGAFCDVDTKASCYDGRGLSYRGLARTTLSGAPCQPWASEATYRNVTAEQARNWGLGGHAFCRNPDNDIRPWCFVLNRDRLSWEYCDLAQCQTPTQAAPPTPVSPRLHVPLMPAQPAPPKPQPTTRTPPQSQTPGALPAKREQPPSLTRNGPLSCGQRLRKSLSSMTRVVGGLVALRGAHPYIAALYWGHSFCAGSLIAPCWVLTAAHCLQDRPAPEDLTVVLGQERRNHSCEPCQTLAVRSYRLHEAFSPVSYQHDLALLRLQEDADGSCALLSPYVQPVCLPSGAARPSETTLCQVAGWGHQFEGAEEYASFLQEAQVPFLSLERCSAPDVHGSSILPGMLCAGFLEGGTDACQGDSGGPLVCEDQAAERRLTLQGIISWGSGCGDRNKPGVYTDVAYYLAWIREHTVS
The experiment can be described thus: Inhibition of human beta factor 12a using fluorogenic substrate Boc-Gln-Gly-Arg-AMC preincubated for 10 mins followed by addition of substrate measured every min for 30 mins.

For orientation: Ki means the equilibrium dissociation constant of an inhibitor or competing ligand from its target.

In turn, `CC(C)C[C@@H]1NC(=O)[C@H](CCC(N)=O)NC(=O)[C@H](CCCNC(=N)N)NC(=O)[C@@H]2CSCCC(=O)N3CN(CN(C3)C(=O)CCSC[C@@H](C(=O)N[C@@H](CCCNC(=N)N)C(=O)O)NC(=O)[C@H](CCCNC(=N)N)NC1=O)C(=O)CCSC[C@H](NC(=O)[C@H](N)CCCNC(=N)N)C(=O)N[C@@H](Cc1ccccc1)C(=O)N[C@@H](CCCNC(=N)N)C(=O)N[C@@H](CC(C)C)C(=O)N1CCC[C@H]1C(=O)N2` yielded a Ki of 34.4 nM.

`CC(C)C[C@@H]1NC(=O)[C@H](CCC(N)=O)NC(=O)[C@H](CCCNC(=N)N)NC(=O)[C@@H]2CSCCC(=O)N3CN(CN(C3)C(=O)CCSC[C@H](NC(=O)[C@@H](N)C(C)C)C(=O)N[C@@H](Cc3ccccc3)C(=O)N[C@@H](CCCNC(=N)N)C(=O)N[C@@H](CC(C)C)C(=O)N3CCC[C@H]3C(=O)N2)C(=O)CCSC[C@@H](C(=O)N[C@@H](CCCNC(=N)N)C(=O)O)NC(=O)[C@H](CCCNC(=N)N)NC1=O` (H-VCFRLPCRQLRCR-OH; linker 2-7-12 via TATA) returned a Ki of 99 nM.

In the case of `CC(C)C[C@@H]1NC(=O)[C@H](CCC(N)=O)NC(=O)[C@H](CCCNC(=N)N)NC(=O)[C@@H]2CSCCC(=O)N3CN(CN(C3)C(=O)CCSC[C@H](NC(=O)[C@@H](N)CCCCN)C(=O)N[C@@H](Cc3ccccc3)C(=O)N[C@@H](CCCNC(=N)N)C(=O)N[C@@H](CC(C)C)C(=O)N3CCC[C@H]3C(=O)N2)C(=O)CCSC[C@@H](C(=O)N[C@@H](CCCNC(=N)N)C(=O)O)NC(=O)[C@H](CCCNC(=N)N)NC1=O` (H-KCFRLPCRQLRCR-OH; linker 2-7-12 via TATA), the inhibitory constant (Ki) stood at 9 nM.

In turn, `CSCC[C@@H]1NC(=O)[C@H](CCC(N)=O)NC(=O)[C@H](CCCNC(=N)N)NC(=O)[C@@H]2CSCCC(=O)N3CN(CN(C3)C(=O)CCSC[C@H](NC(=O)[C@@H](N)CCCNC(=N)N)C(=O)N[C@@H](Cc3ccccc3)C(=O)N[C@@H](CCCNC(=N)N)C(=O)N[C@@H](CC(C)C)C(=O)N3CCC[C@H]3C(=O)N2)C(=O)CCSC[C@@H](C(=O)N[C@@H](CCCNC(=N)N)C(=O)N[C@@H](Cc2c[nH]c3ccccc23)C(=O)O)NC(=O)[C@H](CCCNC(=N)N)NC1=O` (H-RCFRLPCRQMRCRW-OH; linker 2-7-12 via TATA) yielded a Ki of 143 nM.

The compound `CC(C)C[C@@H]1NC(=O)[C@H](CCCNC(=N)N)NC(=O)[C@H](Cc2ccccc2)NC(=O)[C@@H](NC(=O)[C@@H](N)CCCNC(=N)N)CSCCC(=O)N2CN3CN(C2)C(=O)CCSC[C@H](NC(=O)[C@@H]2CCCN2C1=O)C(=O)N[C@@H](CCCNC(=N)N)C(=O)N[C@@H](CCC(N)=O)C(=O)N[C@@H](C)C(=O)N[C@@H](CCCNC(=N)N)C(=O)N[C@H](C(=O)N[C@@H](CCCNC(=N)N)C(=O)N[C@@H](Cc1c[nH]c2ccccc12)C(=O)O)CSCCC3=O` (H-RCFRLPCRQARCRW-OH; linker 2-7-12 via TATA) displayed a Ki of 1040 nM.

On to `CC(C)C[C@@H]1NC(=O)[C@H](CCC(N)=O)NC(=O)[C@H](CCCNC(=N)N)NC(=O)[C@@H]2CSCCC(=O)N3CN(CN(C3)C(=O)CCSC[C@H](NC(=O)[C@@H](N)CCCNC(=N)N)C(=O)N[C@@H](Cc3ccc(-c4ccccc4)cc3)C(=O)N[C@@H](CCCNC(=N)N)C(=O)N[C@@H](CC(C)C)C(=O)N3CCC[C@H]3C(=O)N2)C(=O)CCSC[C@@H](C(=O)N[C@@H](CCCNC(=N)N)C(=O)N[C@@H](Cc2c[nH]c3ccccc23)C(=O)O)NC(=O)[C@H](CCCNC(=N)N)NC1=O`, for which the Ki is > 1000 nM.

`CC(C)C[C@@H]1NC(=O)[C@H](CCC(N)=O)NC(=O)[C@H](CCCNC(=N)N)NC(=O)[C@@H]2CSCCC(=O)N3CN(CN(C3)C(=O)CCSC[C@H](NC(=O)[C@@H](N)CCCNC(=N)N)C(=O)N[C@@H](Cc3ccc(F)cc3)C(=O)N[C@@H](CCCNC(=N)N)C(=O)N[C@@H](CC(C)C)C(=O)N3CCC[C@H]3C(=O)N2)C(=O)CCSC[C@@H](C(=O)N[C@@H](CCCNC(=N)N)C(=O)N[C@@H](Cc2c[nH]c3ccccc23)C(=O)O)NC(=O)[C@H](CCCNC(=N)N)NC1=O` displayed a Ki of 0.89 nM.

For the compound `CC(C)C[C@@H]1NC(=O)[C@H](CCC(N)=O)NC(=O)[C@H](CCCNC(=N)N)NC(=O)[C@@H]2CSCCC(=O)N3CN(CN(C3)C(=O)CCSC[C@H](NC(=O)[C@@H](N)CCCNC(=N)N)C(=O)N[C@@H](Cc3ccncc3)C(=O)N[C@@H](CCCNC(=N)N)C(=O)N[C@@H](CC(C)C)C(=O)N3CCC[C@H]3C(=O)N2)C(=O)CCSC[C@@H](C(=O)N[C@@H](CCCNC(=N)N)C(=O)N[C@@H](Cc2c[nH]c3ccccc23)C(=O)O)NC(=O)[C@H](CCCNC(=N)N)NC1=O`, affinity was put at a Ki of 57 nM.

`CC(C)C[C@@H]1NC(=O)[C@H](CCC(N)=O)NC(=O)[C@H](CCCNC(=N)N)NC(=O)[C@@H]2CSCCC(=O)N3CN(CN(C3)C(=O)CCSC[C@H](NC(=O)[C@@H](N)CCCNC(=N)N)C(=O)N[C@@H](Cc3ccccc3)C(=O)N[C@@H](CCCCCN)C(=O)N[C@@H](CC(C)C)C(=O)N3CCC[C@H]3C(=O)N2)C(=O)CCSC[C@@H](C(=O)N[C@@H](CCCNC(=N)N)C(=O)N[C@@H](Cc2c[nH]c3ccccc23)C(=O)O)NC(=O)[C@H](CCCNC(=N)N)NC1=O` (H-RCF[hLys]LPCRQLRCRW-OH; linker 2-7-12 via TATA): the affinity corresponds to a Ki of 51 nM. This Ki and that of the compound before are within 1.5-fold of each other.

`CC(C)C[C@@H]1NC(=O)[C@H](CCC(N)=O)NC(=O)[C@H](CCCNC(=N)N)NC(=O)[C@@H]2CSCCC(=O)N3CN(CN(C3)C(=O)CCSC[C@H](NC(=O)[C@@H](N)CCCNC(=N)N)C(=O)N3CCC[C@H]3C(=O)N[C@@H](CCCNC(=N)N)C(=O)N[C@@H](CC(C)C)C(=O)N3CCC[C@H]3C(=O)N2)C(=O)CCSC[C@@H](C(=O)N[C@@H](CCCNC(=N)N)C(=O)N[C@@H](Cc2c[nH]c3ccccc23)C(=O)O)NC(=O)[C@H](CCCNC(=N)N)NC1=O` registered an inhibitory constant (Ki) of 36.9 nM.

On to `CC(C)C[C@@H]1NC(=O)[C@H](CCC(N)=O)NC(=O)[C@H](CCCNC(=N)N)NC(=O)[C@@H]2CSCCC(=O)N3CN(CN(C3)C(=O)CCSC[C@H](NC(=O)[C@@H](N)CCCNC(=N)N)C(=O)N[C@@H](Cc3ccccc3)C(=O)N[C@@H](CCCNC(=N)N)C(=O)N[C@@H](C(C)C)C(=O)N3CCC[C@H]3C(=O)N2)C(=O)CCSC[C@@H](C(=O)N[C@@H](CCCNC(=N)N)C(=O)N[C@@H](Cc2c[nH]c3ccccc23)C(=O)O)NC(=O)[C@H](CCCNC(=N)N)NC1=O` (H-RCFRVPCRQLRCRW-OH; linker 2-7-12 via TATA), for which the Ki turned out to be 570 nM.

Compound `CC(C)C[C@@H]1NC(=O)[C@H](CCC(N)=O)NC(=O)[C@H](CCCNC(=N)N)NC(=O)[C@@H]2CSCCC(=O)N3CN(CN(C3)C(=O)CCSC[C@H](NC(=O)[C@@H](N)CCCNC(=N)N)C(=O)N[C@@H](Cc3ccccc3)C(=O)N[C@@H](CCCNC(=N)N)C(=O)N[C@@H](CC(C)C)C(=O)N[C@@H](CC(N)=O)C(=O)N2)C(=O)CCSC[C@@H](C(=O)N[C@@H](CCCNC(=N)N)C(=O)N[C@@H](Cc2c[nH]c3ccccc23)C(=O)O)NC(=O)[C@H](CCCNC(=N)N)NC1=O` (H-RCFRLNCRQLRCRW-OH; linker 2-7-12 via TATA) had a Ki of 104 nM.

`CC(C)C[C@@H]1NC(=O)[C@H](CCC(N)=O)NC(=O)[C@H](CCCNC(=N)N)NC(=O)[C@@H]2CSCCC(=O)N3CN(CN(C3)C(=O)CCSC[C@H](NC(=O)[C@@H](N)CCCNC(=N)N)C(=O)N[C@@H](C/C=C/c3ccccc3)C(=O)N[C@@H](CCCNC(=N)N)C(=O)N[C@@H](CC(C)C)C(=O)N3CCC[C@H]3C(=O)N2)C(=O)CCSC[C@@H](C(=O)N[C@@H](CCCNC(=N)N)C(=O)N[C@@H](Cc2c[nH]c3ccccc23)C(=O)O)NC(=O)[C@H](CCCNC(=N)N)NC1=O` displayed an inhibition constant (Ki) of 114 nM.

For the compound `CC(C)C[C@@H]1NC(=O)[C@H](CCC(N)=O)NC(=O)[C@H](CCCNC(=N)N)NC(=O)[C@@H]2CSCCC(=O)N3CN(CN(C3)C(=O)CCSC[C@H](NC(=O)[C@@H](N)CCCNC(=N)N)C(=O)N[C@@H](Cc3ccc(I)cc3)C(=O)N[C@@H](CCCNC(=N)N)C(=O)N[C@@H](CC(C)C)C(=O)N3CCC[C@H]3C(=O)N2)C(=O)CCSC[C@@H](C(=O)N[C@@H](CCCNC(=N)N)C(=O)N[C@@H](Cc2c[nH]c3ccccc23)C(=O)O)NC(=O)[C@H](CCCNC(=N)N)NC1=O`, the inhibition constant (Ki) amounted to 92 nM.

`CC(C)C[C@@H]1NC(=O)[C@H](CCC(N)=O)NC(=O)[C@H](CCCNC(=N)N)NC(=O)[C@@H]2CSCCC(=O)N3CN(CN(C3)C(=O)CCSC[C@H](NC(=O)[C@@H](N)CCCNC(=N)N)C(=O)N[C@@H](Cc3ccccc3)C(=O)N[C@@H](CCCNC(=N)N)C(=O)N[C@@H](CC(C)C)C(=O)N3CCC[C@H]3C(=O)N2)C(=O)CCSC[C@@H](C(=O)N[C@@H](CCCNC(=N)N)C(=O)N[C@@H](Cc2c[nH]c3ccccc23)C(=O)O)NC(=O)[C@H](CCCNC(=N)N)NC1=O` (H-RCFRLPCRQLRCRW-OH; linker 2-7-12 via TATA) yielded an inhibition constant (Ki) of 10.2 nM.

Consider `CC(C)C[C@@H]1NC(=O)[C@H](CC(=O)O)NC(=O)[C@H](CCCNC(=N)N)NC(=O)[C@@H]2CSCCC(=O)N3CN(CN(C3)C(=O)CCSC[C@H](NC(=O)[C@@H](N)CCCNC(=N)N)C(=O)N[C@@H](Cc3ccccc3)C(=O)N[C@@H](CCCNC(=N)N)C(=O)N[C@@H](CC(C)C)C(=O)N3CCC[C@H]3C(=O)N2)C(=O)CCSC[C@@H](C(=O)N[C@@H](CCCNC(=N)N)C(=O)N[C@@H](Cc2c[nH]c3ccccc23)C(=O)O)NC(=O)[C@H](CCCNC(=N)N)NC1=O` (H-RCFRLPCRDLRCRW-OH; linker 2-7-12 via TATA), for which the affinity, expressed as Ki, was 550 nM.
